Data taken from article PMC7914463, “Caffeic Acid Modulates Processes Associated with Intestinal Inflammation” (Nutrients, 2021).
Read-outs that look alike come from different tables or passages of the source.

Molecular target: T1, angiotensin-converting enzyme (ACE) (Sus scrofa, UniProt F1RRW5)
T1 construct: ACE isolated from porcine kidneys (EC 3.4.15.1)
T1 sequence (F1RRW5 34-1309): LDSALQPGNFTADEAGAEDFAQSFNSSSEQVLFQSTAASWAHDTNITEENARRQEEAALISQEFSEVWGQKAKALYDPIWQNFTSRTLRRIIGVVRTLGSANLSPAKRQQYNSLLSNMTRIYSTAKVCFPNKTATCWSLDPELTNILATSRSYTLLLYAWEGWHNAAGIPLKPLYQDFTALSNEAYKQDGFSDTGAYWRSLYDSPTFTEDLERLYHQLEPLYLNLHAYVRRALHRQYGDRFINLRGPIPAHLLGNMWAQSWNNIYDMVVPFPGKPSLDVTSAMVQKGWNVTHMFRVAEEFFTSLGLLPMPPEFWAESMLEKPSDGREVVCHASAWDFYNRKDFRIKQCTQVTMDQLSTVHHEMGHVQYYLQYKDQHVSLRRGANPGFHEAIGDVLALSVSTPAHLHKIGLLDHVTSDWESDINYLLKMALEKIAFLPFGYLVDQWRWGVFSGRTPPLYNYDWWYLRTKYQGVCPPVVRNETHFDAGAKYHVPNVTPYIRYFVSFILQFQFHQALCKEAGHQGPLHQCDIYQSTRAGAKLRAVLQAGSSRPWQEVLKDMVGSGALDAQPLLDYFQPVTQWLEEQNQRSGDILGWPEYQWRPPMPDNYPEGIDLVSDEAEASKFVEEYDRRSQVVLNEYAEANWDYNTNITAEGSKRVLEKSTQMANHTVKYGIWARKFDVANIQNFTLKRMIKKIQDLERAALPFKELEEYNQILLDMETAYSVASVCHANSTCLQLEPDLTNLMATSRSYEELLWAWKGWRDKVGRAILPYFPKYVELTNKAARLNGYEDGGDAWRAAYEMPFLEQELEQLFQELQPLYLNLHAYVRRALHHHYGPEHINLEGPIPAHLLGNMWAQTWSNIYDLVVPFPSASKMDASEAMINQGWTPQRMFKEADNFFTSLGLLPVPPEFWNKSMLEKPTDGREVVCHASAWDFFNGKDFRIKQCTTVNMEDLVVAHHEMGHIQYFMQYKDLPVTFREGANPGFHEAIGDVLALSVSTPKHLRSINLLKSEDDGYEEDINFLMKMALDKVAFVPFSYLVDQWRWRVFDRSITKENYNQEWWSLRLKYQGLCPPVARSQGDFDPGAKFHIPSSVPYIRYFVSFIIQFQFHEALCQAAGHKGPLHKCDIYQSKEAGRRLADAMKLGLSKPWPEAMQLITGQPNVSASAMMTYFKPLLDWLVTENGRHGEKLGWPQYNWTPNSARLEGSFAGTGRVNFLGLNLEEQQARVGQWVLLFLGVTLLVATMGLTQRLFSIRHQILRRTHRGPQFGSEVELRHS
Test: fluorescence assay, hydrolysis of Abz-Gly-Phe(NO2)-Pro
Format: biochemical

Structure (SMILES)	IC50	IC50 (read-out: IC50 (μg/mL) (converted)) [mM]
O=C1O[C@H]([C@@H](O)CO)C(O)=C1O [AA, L-ascorbic acid]	81.3 mM	
O=C(O)/C=C/c1ccc(O)c(O)c1 [CFA, Caffeic acid]		8.97
N[C@@H](CCC(=O)N[C@@H](CS)C(=O)NCC(=O)O)C(=O)O [GSH]	12.79 ± 1.70 µg/mL	
